In patent publication US20250332173A1, “COMPOUNDS AND METHODS FOR MODULATING NUCLEIC ACID SPLICING” (REMIX THERAPEUTICS INC., priority 2021, published 2025):

System: Target C
Experiment: HiBiT protein abundance assay, Target C (Promega Nano-Glo HiBiT Lytic Detection System, knock-in K562 cell line)
Format: cell-based, human
Conditions: Homo sapiens, K562, 24 h, HiBiT K562 cell line, 24 hours, top dose 10 μM; read-out: Effect on protein abundance, Target C (IC50 category)
Procedure, shortened: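 Knock-in K562 cells carrying HiBiT-tagged Target C, 10,000 per well, treated 24 h at 37 °C with 10-point threefold dilutions (top 10 μM final, ≤0.25% DMSO). Lytic HiBiT luminescence read; response normalised to unmodified K562 and DMSO controls, four-parameter fit interpolated at 50% for IC50.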

SMILES | IC50 [nM]
Cc1cn2cc(-c3ccc4c(=O)n(C5CCNC6(CC6)C5)cnc4c3)cc(F)c2n1 (centres unmarked) [Compound 236] | 1000 to 10000
Cc1cc(-c2ccc3c(=O)n(C4CCN(C)CC4)cnc3c2F)cc2cn(C)nc12 [Compound 235] | > 10000
Cc1cn2cc(-c3ccc4c(c3)CCN(C3CCNCC3)C4=O)cc(Cl)c2n1 [Compound 216, 6-[8-chloro-2-methylimidazo[1,2-a]pyridin-6-yl]-2-(piperidin-4-yl)-3,4-dihydroisoquinolin-1-one] | 1000 to 10000
Cn1cc2cc(-c3ncc4c(=O)n([C@H]5CCNC5)ccc4n3)c(O)c(F)c2n1 [Compound 1465] | 100 to 1000
Cc1cc(-c2ccc3c(=O)n(C4CCNCC4)cnc3c2F)cc2cn(C)nc12 [Compound 234] | 1000 to 10000
Cc1c(O)c(-c2ccc3c(=O)n([C@H]4C[C@@H](C)N[C@@H](C)C4)ccc3n2)cc2cn(C)nc12 [Compound 1464, 6-[(2S,6R)-2,6-dimethyl-4-piperidyl]-2-(6-hydroxy-2,7-dimethyl-indazol-5-yl)-1,6-naphthyridin-5-one] | 100 to 1000
Cc1cn2cc(-c3ccc4c(=O)n(C5CCN(C)CC5)cnc4c3)cc(F)c2n1 [Compound 207] | 1000 to 10000
Cn1cc2cc(-c3ccc4c(=O)n(C5CCNCC5)cnc4c3)cc(F)c2n1 [Compound 206] | 100 to 1000
Cc1cn2cc(-c3ccc4c(c3)CCN(C3CCNCC3)C4=O)c(C)cc2n1 [Compound 218, 6-[2,7-dimethylimidazo[1,2-a]pyridin-6-yl]-2-(piperidin-4-yl)-3,4-dihydroisoquinolin-1-one] | 1000 to 10000
Cc1c(O)c(-c2ccc3c(=O)n([C@@H]4C[C@@H](C)N[C@@H](C)C4)ccc3n2)cc2cn(C)nc12 [Compound 1463, 6-[(2S,6R)-2,6-dimethyl-4-piperidyl]-2-(6-hydroxy-2,7-dimethyl-indazol-5-yl)-1,6-naphthyridin-5-one] | 1000 to 10000
O=C1c2ccc(-c3cn[nH]c3)cc2CCN1C1CCNCC1 [Compound 220, 2-(piperidin-4-yl)-6-(1H-pyrazol-4-yl)-3,4-dihydroisoquinolin-1-one] | > 10000
Cc1c(O)c(-c2ncc3c(=O)n([C@H]4CC[C@@H](N(C)C)CC4)ccc3n2)cc2cn(C)nc12 [Compound 1460, 6-((1s,4s)-4-(dimethylamino)cyclohexyl)-2-(6-hydroxy-2,7-dimethyl-2H-indazol-5-yl)pyrido[4,3-d]pyrimidin-5(6H)-one] | 1000 to 10000
Cc1cn2cc(-n3cnc4cc(N5CCNCC5)ccc4c3=O)cc(F)c2n1 [Compound 228] | 100 to 1000
Cc1cn2nc(-c3ccc4c(=O)n(C5CCN(CCO)C6(CC6)C5)ncc4n3)cc(C)c2n1 (centres unmarked) [Compound 1541, 2-(2,8-dimethylimidazo[1,2-b]pyridazin-6-yl)-6-[4-(2-hydroxyethyl)-4-azaspiro[2.5]octan-7-yl]pyrido-[2,3-d]pyridazin-5-one] | 100 to 1000
CN1CCC(n2cnc3cc(-c4cc(F)c5nn(C)cc5c4)ccc3c2=O)CC1 [Compound 209] | > 10000
Cc1cn2cc(-c3ncc4c(=O)n([C@H]5CCNC6(CC6)C5)ccc4n3)cc(F)c2n1 [Compound 1458, 6-[(7S)-4-azaspiro[2.5]octan-7-yl]-2-(8-fluoro-2-methyl-imidazo[1,2-a]pyridin-6-yl)pyrido[4,3-d]pyrimidin-5-one] | 100 to 1000
Cc1cn2cc(-c3ccc4c(=O)n(C5CCNCC5)cnc4c3)cc(F)c2n1 [Compound 205] | 100 to 1000
Cc1cn2nc(-c3ccc4c(=O)n(C5C[C@@H](C)N[C@H](C)C5)ncc4n3)cc(C)c2n1 (stereo in doubt) [Compound 1537, 2-(2,8-dimethylimidazo[1,2-b]pyridazin-6-yl)-6-[(2R,6R)-2,6-dimethyl-4-piperidyl]pyrido[2,3-d]pyridazin-5-one] | 100 to 1000
Cn1cc2cc(-c3ccc4c(c3)CCN(C3CCNCC3)C4=O)cc(F)c2n1 [Compound 225] | > 10000
Cc1cc(-c2cc(F)c3c(=O)n(C4CCNCC4)cnc3c2)cc2cn(C)nc12 [Compound 232] | 100 to 1000
